Patent US7115664B2, “Peptidomimetic ligands for cellular receptors and ion channels” (Sepracor Inc., priority 2000, dated 2006)

What was measured:
[1] = biological target: potassium channel [KA], [KV] or [SKCa]; assay: Potassium channel receptor binding; conditions: read-out: K** (IC50)
Experimental: (§1) The opioid (μ) receptor binding capabilities of compounds described herein were determined according to the procedures outlined by Wang et al. (FEBS Letters 1994, 338, 217). The sodium channel receptor binding capabilities of compounds described herein were determined according to the procedures outlined by Catterall et al. (J. Biol. Chem. 1981, 256, 8922). The calcium channel receptor binding capabilities of compounds described herein were determined according to the procedures outlined by Gould et al. (Proc. Natl. Acad. Sci. USA 1982, 79, 3656), Ehlert et al. (Life Sci. 1982, 30, 2191), Reynolds et al. (J. Pharmacol. Exp. Ther. 1986, 237, 731), Moresco et al. (Neurobiology of Aging 1990, II, 433) and Schoemaker et al. (Eur. J. Pharmacol. 1985, III, 273). The potassium channel receptor binding capabilities of compounds described herein were determined according to the procedures outlined by Taylor et al. (J. Biol. Chem. 1984, 259, 13957), Rehm et al. (Proc. Natl. Acad. Sci. USA 1988, 85, 4919), Vasquez et al. (J. Biol. Chem. 1990, 265, 15564) and Mourre et al. (Brain Research 1986, 382, 239).

calcium channel (type N) = calcium channel (type N) (Rattus norvegicus, UniProt Q02294); assay: Calcium channel receptor binding, type N; conditions: read-out: Ca (type N) (IC50)
Experimental: as §1

sodium channel (site 2) = assay: Sodium channel receptor binding (site 2); conditions: sodium channel site 2 binding; read-out: Na (site 2) (IC50)
Experimental: as §1

opioid (μ) receptor = opioid (μ) receptor (Homo sapiens, UniProt P35372); assay: Opioid (μ) receptor binding
Description: Another assay useful in the present invention concerns determining the ability of a ligand to bind to a biological receptor utilizing a technique well known in the art referred to as a radioligand binding assay. This assay accurately determines the specific binding of a radioligand to a targeted receptor through the delineation of its total and nonspecific binding components. Total binding is defined as the amount of radioligand that remains following the rapid separation of the radioligand bound in a receptor preparation (cell homogenates or recombinate receptors) from that which is unbound. The nonspecific binding component is defined as the amount of radioligand that remains following separation of the reaction mixture consisting of receptor, radioligand and an excess of unlabeled ligand. Under this condition, the only radioligand that remains represents that which is bound to components other that receptor. The specific radioligand bound is determined by subtracting the nonspecific from total radioactivity bound. For a specific example of radioligand binding assay for μ-opioid receptor, see Wang, J. B. et al. FEBS Letters 1994, 338, 217.
as §1

opioid (μ) receptor, sequence (P35372 whole entry): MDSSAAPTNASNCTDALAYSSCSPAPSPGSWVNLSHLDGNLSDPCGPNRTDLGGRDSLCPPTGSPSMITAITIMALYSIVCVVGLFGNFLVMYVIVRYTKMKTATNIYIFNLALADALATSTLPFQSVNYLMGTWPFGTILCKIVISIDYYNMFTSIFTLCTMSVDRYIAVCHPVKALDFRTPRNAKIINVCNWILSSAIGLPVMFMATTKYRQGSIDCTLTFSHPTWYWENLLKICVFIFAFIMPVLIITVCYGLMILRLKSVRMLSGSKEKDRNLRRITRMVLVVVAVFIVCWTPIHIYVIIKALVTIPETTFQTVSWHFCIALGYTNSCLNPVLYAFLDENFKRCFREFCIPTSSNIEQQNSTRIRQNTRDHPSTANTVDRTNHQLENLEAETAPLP
calcium channel (type N), sequence (Q02294 whole entry): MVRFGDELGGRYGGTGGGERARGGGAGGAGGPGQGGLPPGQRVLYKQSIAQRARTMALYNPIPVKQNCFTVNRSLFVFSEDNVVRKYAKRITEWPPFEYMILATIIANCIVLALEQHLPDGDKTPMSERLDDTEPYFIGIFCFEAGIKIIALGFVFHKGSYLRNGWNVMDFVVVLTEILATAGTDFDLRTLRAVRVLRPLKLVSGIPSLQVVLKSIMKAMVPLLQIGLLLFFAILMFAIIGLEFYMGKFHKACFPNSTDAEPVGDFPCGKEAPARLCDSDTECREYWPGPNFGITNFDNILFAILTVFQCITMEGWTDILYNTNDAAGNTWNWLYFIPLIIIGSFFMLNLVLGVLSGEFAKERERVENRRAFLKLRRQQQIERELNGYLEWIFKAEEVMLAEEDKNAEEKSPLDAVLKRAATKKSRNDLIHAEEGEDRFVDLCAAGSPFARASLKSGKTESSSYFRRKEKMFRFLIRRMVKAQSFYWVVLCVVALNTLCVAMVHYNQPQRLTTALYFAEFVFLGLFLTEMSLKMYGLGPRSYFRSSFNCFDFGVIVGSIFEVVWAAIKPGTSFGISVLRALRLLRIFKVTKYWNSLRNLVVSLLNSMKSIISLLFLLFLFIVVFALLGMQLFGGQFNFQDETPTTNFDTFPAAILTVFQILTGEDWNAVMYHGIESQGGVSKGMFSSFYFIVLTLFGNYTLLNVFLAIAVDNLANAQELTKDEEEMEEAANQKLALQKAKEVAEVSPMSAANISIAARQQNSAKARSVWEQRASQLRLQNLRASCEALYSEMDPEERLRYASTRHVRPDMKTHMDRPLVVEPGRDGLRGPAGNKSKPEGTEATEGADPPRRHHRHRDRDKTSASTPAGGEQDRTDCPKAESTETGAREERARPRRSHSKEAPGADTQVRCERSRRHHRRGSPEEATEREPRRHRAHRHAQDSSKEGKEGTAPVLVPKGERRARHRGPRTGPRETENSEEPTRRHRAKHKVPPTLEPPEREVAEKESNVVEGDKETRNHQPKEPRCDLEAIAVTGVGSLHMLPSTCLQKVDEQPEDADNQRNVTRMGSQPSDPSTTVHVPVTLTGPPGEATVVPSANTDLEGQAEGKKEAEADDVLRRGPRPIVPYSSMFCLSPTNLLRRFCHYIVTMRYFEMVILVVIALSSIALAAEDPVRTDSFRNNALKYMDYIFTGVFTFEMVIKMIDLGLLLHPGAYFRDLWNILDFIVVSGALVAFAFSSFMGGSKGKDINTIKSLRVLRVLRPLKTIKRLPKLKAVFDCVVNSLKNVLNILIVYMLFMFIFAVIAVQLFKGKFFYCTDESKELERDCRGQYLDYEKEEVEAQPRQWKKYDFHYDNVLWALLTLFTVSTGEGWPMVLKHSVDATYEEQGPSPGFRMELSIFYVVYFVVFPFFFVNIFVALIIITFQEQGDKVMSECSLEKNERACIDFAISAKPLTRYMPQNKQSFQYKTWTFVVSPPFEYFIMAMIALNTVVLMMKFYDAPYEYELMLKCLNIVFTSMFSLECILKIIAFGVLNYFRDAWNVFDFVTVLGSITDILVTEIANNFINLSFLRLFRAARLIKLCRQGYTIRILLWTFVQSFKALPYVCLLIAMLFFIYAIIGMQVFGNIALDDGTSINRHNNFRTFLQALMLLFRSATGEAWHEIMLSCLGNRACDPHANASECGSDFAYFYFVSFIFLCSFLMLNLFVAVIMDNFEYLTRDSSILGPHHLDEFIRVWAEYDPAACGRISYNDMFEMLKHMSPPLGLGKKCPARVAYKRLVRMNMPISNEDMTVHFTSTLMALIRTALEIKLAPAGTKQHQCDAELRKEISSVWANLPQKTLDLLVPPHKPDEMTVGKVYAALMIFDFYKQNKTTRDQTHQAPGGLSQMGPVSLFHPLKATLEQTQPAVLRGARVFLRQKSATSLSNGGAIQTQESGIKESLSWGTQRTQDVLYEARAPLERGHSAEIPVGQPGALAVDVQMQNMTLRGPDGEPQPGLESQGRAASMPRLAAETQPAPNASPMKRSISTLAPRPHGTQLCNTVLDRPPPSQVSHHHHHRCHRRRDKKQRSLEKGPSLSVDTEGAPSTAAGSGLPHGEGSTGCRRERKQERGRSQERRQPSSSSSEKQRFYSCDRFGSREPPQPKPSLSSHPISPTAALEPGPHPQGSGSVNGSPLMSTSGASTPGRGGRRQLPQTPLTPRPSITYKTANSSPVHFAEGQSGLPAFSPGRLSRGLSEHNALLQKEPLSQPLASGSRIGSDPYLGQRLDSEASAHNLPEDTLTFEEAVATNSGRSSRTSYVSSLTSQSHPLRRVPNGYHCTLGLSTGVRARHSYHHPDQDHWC
calcium channel (type N), sequence (P54287 whole entry partner): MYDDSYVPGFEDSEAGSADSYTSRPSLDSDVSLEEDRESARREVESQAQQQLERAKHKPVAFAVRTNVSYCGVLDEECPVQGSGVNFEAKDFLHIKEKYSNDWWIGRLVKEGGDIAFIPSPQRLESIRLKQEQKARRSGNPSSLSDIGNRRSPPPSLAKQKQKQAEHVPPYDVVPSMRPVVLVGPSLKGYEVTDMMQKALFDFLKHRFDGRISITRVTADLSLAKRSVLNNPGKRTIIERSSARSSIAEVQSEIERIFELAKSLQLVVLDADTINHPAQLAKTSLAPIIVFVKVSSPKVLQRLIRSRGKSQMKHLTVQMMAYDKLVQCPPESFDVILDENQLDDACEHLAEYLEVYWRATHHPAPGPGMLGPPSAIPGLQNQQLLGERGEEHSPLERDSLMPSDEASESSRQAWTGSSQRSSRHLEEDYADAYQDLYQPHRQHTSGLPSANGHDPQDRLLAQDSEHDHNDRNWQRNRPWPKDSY
calcium channel (type N), sequence (P54290 25-944 partner limits assumed): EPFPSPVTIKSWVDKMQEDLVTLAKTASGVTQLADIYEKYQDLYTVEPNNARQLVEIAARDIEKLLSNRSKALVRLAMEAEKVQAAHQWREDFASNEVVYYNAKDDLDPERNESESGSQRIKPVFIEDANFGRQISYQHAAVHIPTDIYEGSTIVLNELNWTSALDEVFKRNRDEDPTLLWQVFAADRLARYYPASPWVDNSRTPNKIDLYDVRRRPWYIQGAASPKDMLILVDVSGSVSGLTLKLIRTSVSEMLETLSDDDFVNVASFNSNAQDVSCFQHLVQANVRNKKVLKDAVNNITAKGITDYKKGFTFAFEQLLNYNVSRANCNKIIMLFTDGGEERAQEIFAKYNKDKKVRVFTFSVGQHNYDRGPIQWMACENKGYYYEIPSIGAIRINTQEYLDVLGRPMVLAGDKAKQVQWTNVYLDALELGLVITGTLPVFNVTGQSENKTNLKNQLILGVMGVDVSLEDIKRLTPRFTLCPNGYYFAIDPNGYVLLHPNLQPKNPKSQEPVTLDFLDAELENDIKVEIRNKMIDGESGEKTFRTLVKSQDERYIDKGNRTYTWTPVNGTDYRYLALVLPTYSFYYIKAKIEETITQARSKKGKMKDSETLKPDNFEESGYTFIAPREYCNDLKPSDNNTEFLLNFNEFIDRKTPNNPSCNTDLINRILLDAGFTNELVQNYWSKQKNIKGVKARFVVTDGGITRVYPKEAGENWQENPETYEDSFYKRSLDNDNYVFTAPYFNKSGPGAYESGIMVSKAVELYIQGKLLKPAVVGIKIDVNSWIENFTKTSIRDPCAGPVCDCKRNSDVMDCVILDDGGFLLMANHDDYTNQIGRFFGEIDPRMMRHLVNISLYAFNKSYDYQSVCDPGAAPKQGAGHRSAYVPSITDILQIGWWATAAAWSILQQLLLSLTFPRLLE
calcium channel (type N), sequence (P54290 945-1091 partner limits assumed): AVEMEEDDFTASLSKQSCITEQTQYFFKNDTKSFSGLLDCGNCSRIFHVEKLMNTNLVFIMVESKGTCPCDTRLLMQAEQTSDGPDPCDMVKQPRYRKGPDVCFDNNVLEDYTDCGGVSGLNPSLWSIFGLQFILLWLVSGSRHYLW

Row | SMILES | IC50 [1] [nM] | IC50 (calcium channel (type N)) [nM] | IC50 (sodium channel (site 2)) [nM] | IC50 (opioid (μ) receptor) [nM]
1 | CC(C)(C)[C@H](NC(=O)Nc1cccc(C(F)(F)F)c1)C(=O)N[C@H]1CCN(Cc2ccccc2)C1 [Compound 3b, N-(1-Benzyl-pyrrolidin-3-(S)-yl)-3,3-dimethyl-2-(S)-[3-(3-trifluoromethyl-phenyl)-ureido]-butyramide] | > 1000 | > 1000 | < 100 | < 1000
2 | CN(C)CCN(Cc1ccccc1)C(=O)[C@@H](NC(=O)Nc1cccc(C(F)(F)F)c1)C(C)(C)C [Compound 16, N-Benzyl-N-(2-dimethylamino-ethyl)-3,3-dimethyl-2-[3-(3-trifluoromethyl-phenyl)-ureido]-butyramide] |  | > 1000 | < 1000 | > 1000
3 | CC(C)(C)[C@@H](CN[C@H](CN)Cc1ccccc1)NC(=O)Nc1cccc(C(F)(F)F)c1 [Compound 5, 1-{1-[(2-Amino-1-benzyl-ethylamino)-methyl]-2,2-dimethy-propyl}-3-(3-trifluoromethyl-phenyl)-urea] | > 1000 | > 1000 | < 100 | > 1000
4 | CN(C)CCN(Cc1ccccc1)C(=O)[C@@H]1Cc2ccccc2CN1C(=O)Nc1cccc(C(F)(F)F)c1 [Compound 3g, 3,4-Dihydro-1H-isoquinoline-2,3-dicarboxylic acid 3-(S)-[benzyl-(2-dimethylamino-ethyl)-amide] 2-[(3-trifluoromethyl-phenyl)-amide]] | > 1000 | > 1000 | < 100 | > 1000
5 | CN(C)CCN(Cc1ccccc1)C(=O)[C@@H](NC(=O)Nc1ccc(OC(F)(F)F)cc1)C(C)(C)C [Compound 17, N-Benzyl-N-(2-dimethylamino-ethyl)-3,3-dimethyl-2-[3-(4trifluoromethoxy-phenyl)-ureido]-butyramide] |  | > 1000 | < 100 | > 1000
6 | CN(CC(NC(=O)Nc1cccc(C(F)(F)F)c1)C(C)(C)C)C1CCN(Cc2ccccc2)C1 (centres unmarked) [Compound 9, 1-(1-{[(1-Benzyl-pyrrolidin-3-yl)-methyl-amino]-methyl}-2,2-dimethyl-propyl)-3-(3-trifluoromethyl-phenyl)-urea] | > 1000 | > 1000 | < 100 | > 1000
7 | CN(C)CCN(Cc1ccccc1)C(=O)[C@@H]1CCCN1C(=O)Nc1ccc(OC(F)(F)F)cc1 [Compound 22, Pyrrolidine-1,2-dicarboxylic acid 2-[benzyl-(2-dimethylamino-ethyl)-amide] 1-[(4-trifluoromethoxy-phenyl)-amide]] |  | > 1000 | < 1000 | 
8 | CN(CC(NC(=O)Nc1ccc(OC(F)(F)F)cc1)C(C)(C)C)C1CCN(Cc2ccccc2)C1 (centres unmarked) [Compound 11, 1-(1-{[(1-Benzyl-pyrrolidin-3-yl)-methyl-amino]-methyl}-2,2-dimethyl-propyl)-3-(4-trifluoromethoxy-phenyl)-urea] | > 1000 | > 1000 | < 100 | > 1000
9 | CC(C)(C)[C@H](NC(=O)Nc1cc(F)ccc1F)C(=O)N[C@H]1CCN(Cc2ccccc2)C1 [Compound 3c, N-(1-Benzyl-pyrrolidin-3-(S)-yl)-2-(S)-[3-(2,5-difluoro-phenyl)-ureido]-3,3-dimethyl-butyramide] | > 1000 | > 1000 | < 1000 | > 1000
10 | CC(C)(C)[C@H](NC(=O)Nc1cccc(C(F)(F)F)c1)C(=O)N[C@@H](Cc1ccccc1)C(=O)N1CCNCC1 [Compound 15, N-(1-Benzyl-2-oxo-2-piperazin-1-yl-ethyl)-3,3-dimethyl-2-[3-(3-trifluoromethyl-phenyl) -ureido]-butyramide] |  | > 1000 | > 1000 | > 1000
11 | O=C(NC1CCN(Cc2ccccc2)CC1)[C@@H]1Cc2ccccc2CN1C(=O)Nc1ccc(OC(F)(F)F)cc1 [Compound 3f, 3,4Dihydro-1H-isoquinoline-2,3-dicarboxylic acid 3-(S)-[(1-benzyl-piperidin-4-yl)-amide] 2-[(4-trifluoromethoxy-phenyl)-amide]] | > 1000 | > 1000 | < 100 | > 1000

Continued, values first:

Row | IC50 [1] [nM] | IC50 (calcium channel (type N)) [nM] | IC50 (sodium channel (site 2)) [nM] | IC50 (opioid (μ) receptor) [nM] | SMILES
12 | > 1000 | > 1000 | < 100 | > 1000 | O=C(NC1CCN(Cc2ccccc2)CC1)[C@@H]1Cc2ccccc2CN1C(=O)Nc1cccc(C(F)(F)F)c1 [Compound 3e, 3,4-Dihydro-1H-isoquinoline-2,3-dicarboxylic acid 3-(S)-[(1-benzyl-piperidin-4-yl)-amide] 2-[(3-trifluoromethyl-phenyl)-amide]]
13 | > 1000 | > 1000 | < 1000 | > 1000 | CC(C)(C)[C@H](NC(=O)Nc1cccc(C(F)(F)F)c1)C(=O)N[C@@H]1CCN(Cc2ccccc2)C1 [Compound 3a, N-(1-Benzyl-pyrrolidin-3-(R)-yl)-3,3-dimethyl-2-(S)-[3-(3-trifluoromethyl-phenyl)-ureido]-butyramide]
14 | > 1000 | > 1000 | < 1000 | > 1000 | CN(C(=O)C(NC(=O)Nc1ccc(OC(F)(F)F)cc1)C(C)(C)C)C1CCN(Cc2ccccc2)C1 (centres unmarked) [Compound 10, N-(1-Benzyl-pyrrolidin-3-yl)-3,3,N-trimethyl-2-[3-(4-trifluoromethoxy-phenyl)-ureido]-butyramide]
15 |  | > 1000 | < 1000 | > 1000 | CC(C)(C)[C@H](NC(=O)Nc1ccc(OC(F)(F)F)cc1)C(=O)N[C@H]1CCN(Cc2ccccc2)C1 [Compound 19, N-(1-Benzyl-pyrrolidin-3-yl)-3,3-dimethyl-2-[3-(4-trifluoromethoxy-phenyl)-ureido]-butyramide]
16 | > 1000 | > 1000 | < 100 | < 100 | CC(C)(C)C(NC(=O)Nc1cccc(C(F)(F)F)c1)C(=O)NC(CN)Cc1ccccc1 (centres unmarked) [Compound 4, N-(2-Amino-1-benzyl-ethyl)-3,3-dimethyl-2-[3-(3-trifluoromethyl-phenyl)ureido]-butyramide]
17 | > 1000 | > 1000 | < 1000 | > 1000 | CC(C)(C)[C@H](NC(=O)Nc1cc(F)ccc1F)C(=O)N[C@@H]1CCN(Cc2ccccc2)C1 [Compound 3d, N-(1-Benzyl-pyrrolidin-3-(R)-yl)-2-(S)-[3-(2,5-difluoro-phenyl)-ureido]-3,3-dimethyl-butyramide]
18 | > 1000 | > 1000 | < 100 | > 1000 | CN(C)CCN(Cc1ccccc1)C(=O)[C@@H]1Cc2ccccc2CN1C(=O)Nc1ccc(OC(F)(F)F)cc1 [Compound 3h, 3,4-Dihydro-1H-isoquinoline-2,3-dicarboxylic acid 3-(S)-[benzyl-(2-dimethylamino-ethyl)-amide] 2-[(4-trifluoromethoxy-phenyl)-amide]]
19 | > 1000 | > 1000 | < 1000 | < 100 | CN(C)C[C@H](Cc1ccccc1)NC(=O)[C@@H](NC(=O)Nc1cccc(C(F)(F)F)c1)C(C)(C)C [Compound 18, N-(1-Benzyl-2-dimethylamino-ethyl)-3,3-dimethyl-2-[3-(3-trifluoromethyl-phenyl)-ureido]-butyramide]
20 | > 1000 | > 1000 | < 100 | > 1000 | CN(C(=O)C(NC(=O)Nc1cccc(C(F)(F)F)c1)C(C)(C)C)C1CCN(Cc2ccccc2)C1 (centres unmarked) [Compound 8, N-(1-Benzyl-pyrrolidin-3-yl)-3,3,N-trimethyl-2-[3-(3-trifluoromethyl-phenyl)-ureido]-butyramide]
